Data on two compounds can be found in US6924285B2, “Bicyclic heterocyclic compounds, pharmaceutical compositions containing these compounds, their use and process for preparing them” (Boehringer Ingelheim Pharma GmbH & Co., priority 2002, dated 2005).

Data set [1] concerns the target T1, human EGF-receptor kinase (Homo sapiens, UniProt P00533).
T1 construct: GST; made in house; host or cells: Sf9 insect cells (baculovirus)
Kind of data set: Inhibition of human EGF-receptor kinase (enzyme assay, ELISA read-out). The conditions noted are these: cytoplasmic tyrosine kinase domain as GST fusion protein, substrate pEY/bio-pEY, 30 minutes at ambient temperature. The class given is biochemical. The protocol: The inhibition of human EGF-receptor kinase was determined using the cytoplasmic tyrosine kinase domain (methionine 664 to alanine 1186 based on the sequence published in Nature 309 (1984), 418). For this the protein was expressed in Sf9 insect cells as GST fusion protein using the Baculovirus expression system.
The enzyme activity was measured in the presence or absence of the test compounds in serial dilutions. The polymer pEY (4:1) obtained from SIGMA was used as the substrate. Biotinylated pEY (bio-pEY) was added as the tracer substrate. 100 μl of reaction solution contained 10 μl of the inhibitor in 50% DMSO, 20 μl of the substrate solution (200 mM HEPES pH 7.4, 50 mM magnesium acetate, 2.5 mg/ml poly(EY), 5 μg/ml bio-pEY) and 20 μl of enzyme preparation. The enzyme reaction was started by the addition of 50 μl of a 100 μM ATP solution in 10 mM of magnesium chloride. The dilution of the enzyme preparation was adjusted so that the incorporation of phosphate in the bio-pEY was linear in terms of time and quantity of enzyme. The enzyme preparation was diluted in 20 mM HEPES pH 7.4, 1 mM EDTA, 130 mM common salt, 0.05% Triton X-100, 1 mM DTT and 10% glycerol.
The enzyme assays were carried out at ambient temperature over a period of 30 minutes and ended by the addition of 50 μl of a stopping solution (250 mM EDTA in 20 mM HEPES pH 7.4). 100 μl were placed on a streptavidine-coated microtitre plate and incubated for 60 minutes at ambient temperature. Then the plate was washed with 200 μl of a wash solution (50 mM Tris, 0.05% Tween 20). After the addition of 100 μl of an HRPO-labelled anti-PY antibody (PY20H Anti-PTyr:HRP made by Transduction Laboratories, 250 ng/ml) the preparation was incubated for 60 minutes. Then the microtitre plate was washed three times with 200 μl of wash solution. The samples were then combined with 100 μl of a TMB-peroxidase solution (A:B=1:1, Kirkegaard Perry Laboratories). After 10 minutes the reaction was stopped. The extinction was measured at OD450 nm with an ELISA reader. All the results were measured three times.
The data were adapted by iterative calculation using an analytical pogramme for sigmoidal curves (Graph Pad Prism Version 3.0) with a variable Hill pitch. […] The active substance concentration which inhibits the activity of EGF receptor kinase by 50% (IC50) was derived from the curves.

T1 sequence (P00533 688-1210): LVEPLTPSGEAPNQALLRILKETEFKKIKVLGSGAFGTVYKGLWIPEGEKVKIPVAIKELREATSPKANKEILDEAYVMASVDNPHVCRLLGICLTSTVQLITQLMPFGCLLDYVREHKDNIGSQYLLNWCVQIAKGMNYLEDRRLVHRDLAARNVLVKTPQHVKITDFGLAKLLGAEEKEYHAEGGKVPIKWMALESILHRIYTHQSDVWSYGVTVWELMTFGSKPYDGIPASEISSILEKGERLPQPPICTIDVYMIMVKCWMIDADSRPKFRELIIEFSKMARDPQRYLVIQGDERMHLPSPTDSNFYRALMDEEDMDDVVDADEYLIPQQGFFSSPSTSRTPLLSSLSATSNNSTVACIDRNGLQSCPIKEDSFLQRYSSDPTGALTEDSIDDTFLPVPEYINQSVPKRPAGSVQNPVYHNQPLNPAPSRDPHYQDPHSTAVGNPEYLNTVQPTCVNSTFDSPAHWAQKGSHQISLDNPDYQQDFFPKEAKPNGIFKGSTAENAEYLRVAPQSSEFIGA

For the compound `COc1cc2ncnc(Nc3ccc(F)c(Cl)c3)c2cc1O[C@H]1CC[C@@H](NS(C)(=O)=O)CC1` [Example 3, 4-[(3-chloro-4-fluoro-phenyl)amino]-6-(cis-4-methanesulphonylamino-cyclohexan-1-yloxy)-7-methoxy-quinazoline], the melting point turned out to be 234 °C. In addition, the IC50 in data set [1] was found to be 0.9 nM.
With `COc1cc2ncnc(Nc3ccc(F)c(Cl)c3)c2cc1O[C@H]1CC[C@@H](N)CC1` [Example 2, 4-[(3-chloro-4-fluoro-phenyl)amino]-6-(cis-4-amino-cyclohexan-1-yloxy)-7-methoxy-quinazoline x Trifluoroacetic Acid], the melting point turned out to be 232 °C. The IC50 in data set [1] was found to be 4.5 nM.

The IC50 is the concentration needed to halve the response being measured. Usually melting point stands for the temperature, or range, at which the solid turns liquid.
